Experimental data as given in ChEMBL document CHEMBL1157188, “Structure-activity relationship of truncated analogs of caprazamycins as potential anti-tuberculosis agents” (2008).
Values after ≈ are worked out from the molar mass of the structure shown.

Legend:
[1] = system: Mycobacterium tuberculosis; assay: Antimicrobial activity against Mycobacterium tuberculosis H37Rv by almar blue assay; assay type: functional
[2] = system: Mycolicibacterium smegmatis; assay: Antimicrobial activity against Mycobacterium smegmatis; assay type: functional

SMILES: CCCCCCCCCCCCCCCC(=O)OC[C@H](NC(=O)[C@@H](N)[C@H](O[C@@H]1O[C@H](CN)[C@@H](O)[C@H]1O)[C@H]1O[C@@H](n2ccc(=O)[nH]c2=O)[C@H](O)[C@@H]1O)C(=O)O
- MIC50 [1]: 6.25 µg/mL (≈ 8.08 µM)

SMILES: CCCCCCCCCCCCCCCC(=O)O[C@H]1CN(C)[C@@H]([C@H](O)[C@H]2O[C@@H](n3ccc(=O)[nH]c3=O)[C@H](O)[C@@H]2O)C(=O)N(C)[C@@H]1C(=O)O
- MIC50 [1]: > 100 µg/mL

SMILES: CCCCCCCCCCCCCCCC(=O)O[C@H]1CN(C)[C@@H]([C@@H](C)O[C@@H]2O[C@H](CN)[C@@H](O)[C@H]2O)C(=O)N(C)[C@@H]1C(=O)O
- MIC50 [1]: > 100 µg/mL

SMILES: CO[C@@H]1[C@@H](OC)[C@H](C)O[C@@H](OC(=O)C[C@@H](C)CC(=O)O[C@@H](CCCCCCCCCC(C)C)CC(=O)O[C@H]2CN(C)[C@@H]([C@H](O[C@@H]3O[C@H](CN)[C@@H](O)[C@H]3O)[C@H]3O[C@@H](n4ccc(=O)[nH]c4=O)[C@H](O)[C@@H]3O)C(=O)N(C)[C@@H]2C(=O)O)[C@@H]1OC
- MIC [2]: 1.56 µg/mL (≈ 1.38 µM)

SMILES: CN1C[C@H](O)[C@@H](C(=O)O)N(C)C(=O)[C@@H]1[C@H](O[C@@H]1O[C@H](CN)[C@@H](O)[C@H]1O)[C@H]1O[C@@H](n2ccc(=O)[nH]c2=O)[C@H](O)[C@@H]1O [CAPRAZOL]
- MIC50 [1]: > 100 µg/mL

SMILES: CCCCCCCCCCCCCCCC(=O)O[C@H]1CN(C)[C@@H]([C@H](O[C@@H]2O[C@H](CN)[C@@H](O)[C@H]2O)[C@H]2O[C@@H](n3ccc(=O)[nH]c3=O)[C@H](O)[C@@H]2O)C(=O)N(C)[C@@H]1C(=O)O [PALMITOYL CAPRAZOL]
- MIC50 [1]: 2.5 µg/mL (≈ 3.07 µM)
- MIC [2]: 6.25 µg/mL (≈ 7.68 µM)
